Results taken from US6297237A, “Process for the preparation of aminocarbonyl derivatives of geneseroline having selective brain anticholinesterase activity” (priority 1997, dated 2001).
Counter-ions that a name gives are not always drawn. Like-named read-outs stand apart in the source and are kept apart here.

What was measured:
heart AChE = test: Inhibition kinetics of heart AChE after oral administration (Table 2); type: in vivo; settings: p.o. at 1/7 LD50: CHF 2060 10, CHF 2819 1.3, CHF 2822 2.5, CHF 2957 9 mg/kg; 1, 4, 16 h; rat
Description: (§1) In a preferred embodiment of the present invention, compounds CHF 2819, CHF 2957, CHF 2822 were evaluated for their enzymatic inhibition potency and selectivity of action through a series of parameters in comparison with n-heptylaminocarbonylgeneseroline hydrochloride (CHF2060).
(§2) Male SD rats weighing 150-200 g were split into groups of 8 animals each, depending on the treatment with the different substances, which were orally administered in distilled water, at a volume of 2 ml/kg. After 2 hours from the administration, the animals were sacrificed as to take their brains. Brain tissue was homogenized in a […] solution in 0.1 M phosphate buffer at pH 8. After 15 minutes centrifugation, at 4° C., the supernatant was separated and AChE was determined on it with the method described by ElIman G. L. et al. (Biochem Pharmacol. 7, 88-95, 1961). For each treatment enzyme inhibition percent was determined against controls (animals treated with distilled water only).
(§3) Another series of experiments was performed in order to determine inhibition kinetics of brain and heart AChE after 1, 4 and 16 hours from administration of each tested substance. Enzyme was assayed on tissue homogenates similarly to what above described. […] Area Under Curve (AUC) was calculated by means of the enzymatic inhibition curve, for brain and heart tissue, related to the three test times.

brain AChE [1] = biological target: T1, brain AChE (Rattus norvegicus, UniProt P37136); test: Inhibition kinetics of brain AChE after oral administration (Table 2); type: in vivo; settings: for selectivity index*: Brain AUC/Heart AUC; for selectivity index* / brain AUC (% inhib · xh) / inhibition at 9 mg/kg: p.o. at 1/7 LD50: CHF 2060 10, CHF 2819 1.3, CHF 2822 2.5, CHF 2957 9 mg/kg, rat; for brain AUC (% inhib · xh) / inhibition at 9 mg/kg: 1, 4, 16 h; for inhibition at 9 mg/kg: po, read-out: brain AChE maximum % inhibition
T1 construct: from tissue; host or cells: rat brain (male SD rats), homogenate in Triton/phosphate buffer, supernatant
Description: as §1, §2, §3

brain AChE [2] = biological target: T1, brain AChE; test: Rat brain AChE inhibition ex vivo after oral administration (Table 1); type: in vivo; settings: for ED50: read-out: ED50 (dose of compound to inhibit 50% of the enzyme), p.o., brain AChE, C.L. 95% given; for inhibition at 3 mg/kg: 3 mg/kg p.o.; for Potency relative to CHF 2060: inhibition of AChE after oral administration in rat
Description: as §1, §2

[3] = tested on: brain acetylcholinesterase (AChE); settings: European patent 0599890; cited from earlier work
erythrocyte AChE = biological target: T2, erythrocyte AChE (Homo sapiens, UniProt P22303); test: In vitro inhibition of erythrocyte AChE (Table 3); type: biochemical; settings: for IC50: erythrocyte AChE, n = 4-8, read-out: AChE IC50 (μM) ± s.e.; for S.I.: selectivity index (IC50 BuChE/IC50 AChE)
T2 construct: from tissue

human plasma BuChE = biological target: T3, human plasma BuChE (Homo sapiens, UniProt P06276); test: In vitro inhibition of human plasma BuChE (Table 3); type: biochemical; settings: for IC50: human plasma BuChE, n = 4-8, read-out: BuChE IC50 (μM) ± s.e.
T3 construct: human plasma BuChE; from tissue; host or cells: human plasma
T3 sequence (P06276 29-602): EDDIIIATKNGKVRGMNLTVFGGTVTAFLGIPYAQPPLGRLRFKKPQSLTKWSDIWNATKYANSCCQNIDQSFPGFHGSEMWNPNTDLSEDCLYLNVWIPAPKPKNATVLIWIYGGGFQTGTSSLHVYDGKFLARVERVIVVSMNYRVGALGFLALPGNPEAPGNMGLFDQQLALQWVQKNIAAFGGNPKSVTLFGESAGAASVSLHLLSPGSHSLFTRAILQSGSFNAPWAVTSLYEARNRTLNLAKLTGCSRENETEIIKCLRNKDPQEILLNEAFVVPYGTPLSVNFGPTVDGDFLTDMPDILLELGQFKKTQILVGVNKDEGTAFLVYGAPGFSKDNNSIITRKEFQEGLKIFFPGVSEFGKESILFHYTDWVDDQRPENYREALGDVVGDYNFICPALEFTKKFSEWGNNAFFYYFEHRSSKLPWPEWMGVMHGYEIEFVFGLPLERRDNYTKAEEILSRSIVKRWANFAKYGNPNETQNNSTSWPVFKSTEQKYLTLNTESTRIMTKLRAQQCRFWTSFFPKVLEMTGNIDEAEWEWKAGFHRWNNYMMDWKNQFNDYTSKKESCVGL

T1 sequence (P37136 32-614): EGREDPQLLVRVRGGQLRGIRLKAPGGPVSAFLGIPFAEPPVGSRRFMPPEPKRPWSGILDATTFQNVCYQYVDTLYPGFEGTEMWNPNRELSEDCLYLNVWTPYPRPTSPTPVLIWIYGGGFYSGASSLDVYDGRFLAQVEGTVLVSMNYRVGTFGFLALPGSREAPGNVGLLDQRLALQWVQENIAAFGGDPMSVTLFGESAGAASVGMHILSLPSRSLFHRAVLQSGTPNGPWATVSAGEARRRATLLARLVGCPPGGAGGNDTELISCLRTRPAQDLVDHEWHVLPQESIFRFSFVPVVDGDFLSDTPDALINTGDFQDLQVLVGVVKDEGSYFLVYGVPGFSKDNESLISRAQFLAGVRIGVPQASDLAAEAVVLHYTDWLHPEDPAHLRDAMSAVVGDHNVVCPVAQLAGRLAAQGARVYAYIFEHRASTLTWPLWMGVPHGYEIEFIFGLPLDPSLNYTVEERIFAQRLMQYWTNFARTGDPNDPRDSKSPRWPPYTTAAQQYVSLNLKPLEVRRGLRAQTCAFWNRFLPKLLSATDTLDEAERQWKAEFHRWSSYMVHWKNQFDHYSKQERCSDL
T2 sequence (P22303 other isoform, or with tags, fused parts or gaps): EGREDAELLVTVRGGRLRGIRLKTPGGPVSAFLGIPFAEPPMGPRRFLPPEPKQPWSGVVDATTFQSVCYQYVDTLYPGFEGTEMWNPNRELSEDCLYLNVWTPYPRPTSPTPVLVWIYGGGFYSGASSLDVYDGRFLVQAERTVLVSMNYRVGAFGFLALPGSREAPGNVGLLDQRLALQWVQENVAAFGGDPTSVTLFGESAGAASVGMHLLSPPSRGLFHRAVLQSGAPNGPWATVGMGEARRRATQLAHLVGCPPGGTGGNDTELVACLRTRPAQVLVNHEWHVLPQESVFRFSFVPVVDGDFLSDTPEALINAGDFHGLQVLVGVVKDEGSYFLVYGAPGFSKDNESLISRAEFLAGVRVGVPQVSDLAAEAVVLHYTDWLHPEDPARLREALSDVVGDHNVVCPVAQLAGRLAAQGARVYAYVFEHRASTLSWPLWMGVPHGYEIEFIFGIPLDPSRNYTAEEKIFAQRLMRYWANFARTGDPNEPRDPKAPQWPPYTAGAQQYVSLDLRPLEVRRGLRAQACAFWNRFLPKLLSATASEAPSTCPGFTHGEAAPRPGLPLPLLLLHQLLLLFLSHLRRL

## CCCCCCCNC(=O)Oc1ccc2c(c1)[C@]1(C)CCN(C)OC1N2C (stereo partly shown) [CHF 2060, n-heptylaminocarbonylgeneseroline hydrochloride, reference compound]
Heart AChE
  Heart AChE maximum % inhibition: 41%
  Heart AUC (% inhib · xh): 450 % inhib · xh
Brain AChE [1]
  selectivity index*: 0.6
  brain AUC (% inhib · xh): 252 % inhib · xh
  inhibition at 9 mg/kg: 20%
Brain AChE [2]
  Potency order (*): 1
Brain AChE [2]; po, rat, 2 h
  ED50: 13.2 mg/kg
Brain AChE [2]; rat, po, 2 h, SD rats
  inhibition at 3 mg/kg: 8%
Brain AChE [2]; rat, po, 10 mg/kg p.o., 2 h, SD rats
  inhibition at 10 mg/kg: 29%
Brain AChE [2]; rat, po, 30 mg/kg p.o., 2 h, SD rats
  inhibition at 30 mg/kg: 60%
[3]
  brain acetylcholinesterase inhibition, duration (in words): inhibitor of brain acetylcholinesterase characterised by a long action
Erythrocyte AChE; in vitro
  IC50: 0.85 ± 0.08 µM
Erythrocyte AChE
  S.I.: 0.005
Human plasma BuChE
  BuChE inhibition relative to AChE (in words): definitely more potent in inhibiting BuChE, rather than AChE
  IC50: 0.005 ± 0.0007 µM

## CCc1ccccc1NC(=O)Oc1ccc2c(c1)[C@]1(C)CCN(C)OC1N2C (stereo partly shown) [CHF 2819, n-(2-ethylphenyl)aminocarbonylgeneseroline hydrochloride]
Heart AChE
  Heart AChE maximum % inhibition: 4%
  Heart AUC (% inhib · xh): 36 % inhib · xh
Brain AChE [1]
  selectivity index*: 9.7
  brain AUC (% inhib · xh): 348 % inhib · xh
Brain AChE [1]; brain versus heart/peripheral
  in vivo selectivity in inhibiting brain AChE (in words): "in vivo" selectivity in inhibiting brain AChE
Brain AChE [1]; in vivo
  duration of action (in words): good duration of action
Brain AChE [2]
  Potency relative to CHF 2060: 8 times
Brain AChE [2]; po, rat, 2 h
  ED50: 1.5 mg/kg
Brain AChE [2]; rat p.o., CHF 2060 = 1
  Potency order (*): 8
Brain AChE [2]; rat, po, 0.4 mg/kg p.o., 2 h, SD rats
  inhibition at 0.4 mg/kg: 9%
Brain AChE [2]; rat, po, 1.3 mg/kg p.o., 2 h, SD rats
  inhibition at 1.3 mg/kg: 34%
Brain AChE [2]; rat, po, 3.7 mg/kg p.o., 2 h, SD rats
  inhibition at 3.7 mg/kg: 55%
Erythrocyte AChE; in vitro
  selectivity AChE versus BuChE (in words): favourable "in vitro" selectivity on AChE with respect to BuChE
  IC50: 0.48 ± 0.06 µM
Erythrocyte AChE; in vitro, AChE versus BuChE, from selectivity index
  selectivity on AChE: 115 times
Erythrocyte AChE
  S.I.: 115
Human plasma BuChE
  IC50: 55.2 ± 6.43 µM

## Cc1ccccc1NC(=O)Oc1ccc2c(c1)[C@]1(C)CCN(C)OC1N2C (stereo partly shown) [CHF 2822, n-(2-methylphenyl)aminocarbonylgeneseroline hydrochloride]
Heart AChE
  Heart AChE maximum % inhibition: 9%
  Heart AUC (% inhib · xh): 96 % inhib · xh
Brain AChE [1]
  selectivity index*: 3.9
  brain AUC (% inhib · xh): 379 % inhib · xh
Brain AChE [2]
  Potency relative to CHF 2060: 7 times
Brain AChE [2]; po, rat, 2 h
  ED50: 1.6 mg/kg
Brain AChE [2]; rat p.o., CHF 2060 = 1
  Potency order (*): 7
Brain AChE [2]; rat, po, 0.8 mg/kg p.o., 2 h, SD rats
  inhibition at 0.8 mg/kg: 25%
Brain AChE [2]; rat, po, 2.5 mg/kg p.o., 2 h, SD rats
  inhibition at 2.5 mg/kg: 46%
Brain AChE [2]; rat, po, 7.5 mg/kg p.o., 2 h, SD rats
  inhibition at 7.5 mg/kg: 68%
Erythrocyte AChE; in vitro
  selectivity AChE versus BuChE (in words): slightly less selective
  IC50: 2.01 ± 0.08 µM
Erythrocyte AChE
  S.I.: 0.09
Human plasma BuChE
  IC50: 0.18 ± 0.01 µM

## Cc1cccc(NC(=O)Oc2ccc3c(c2)[C@]2(C)CCN(C)OC2N3C)c1 (stereo partly shown) [CHF 2957, n-(3-methylphenyl)aminocarbonylgeneseroline hydrochloride]
Heart AChE
  Heart AChE maximum % inhibition: 13%
  Heart AUC (% inhib · xh): 125 % inhib · xh
Brain AChE [1]
  selectivity index*: 4.7
  brain AUC (% inhib · xh): 585 % inhib · xh
  inhibition at 9 mg/kg: 62%
Brain AChE [2]
  Potency relative to CHF 2060: 3 times
Brain AChE [2]; po, rat, 2 h
  ED50: 4.1 mg/kg
Brain AChE [2]; rat p.o., CHF 2060 = 1
  Potency order (*): 3
Brain AChE [2]; rat, po, 2 h, SD rats
  inhibition at 3 mg/kg: 21%
Brain AChE [2]; rat, po, 6 mg/kg p.o., 2 h, SD rats
  inhibition at 6 mg/kg: 56%
Brain AChE [2]; rat, po, 9 mg/kg p.o., 2 h, SD rats
  inhibition at 9 mg/kg: 67%
Erythrocyte AChE; in vitro
  selectivity AChE versus BuChE (in words): good selectivity
  IC50: 4.2 ± 0.29 µM
Erythrocyte AChE
  S.I.: 32
Human plasma BuChE
  IC50: 134 ± 9.7 µM

## CNC(=O)Oc1ccc2c(c1)[C@]1(C)CCN(C)[C@@H]1N2C [Physostigmine, reference compound]
Erythrocyte AChE
  S.I.: 0.27

## CCN(C)C(=O)Oc1cccc([C@H](C)N(C)C)c1 [SDZ-ENA 713, reference compound]
Erythrocyte AChE; in vitro, evaluated as IC50
  AChE affinity / activity (in words): less active than other products
Erythrocyte AChE
  S.I.: 0.007
